{
  "source": "patent US11541104B2",
  "about": "“Method for preventing or treating osteoporosis, characterized by administering teriparatide or salt thereof at a frequency of twice a week” (ASAHI KASEI PHARMA CORPORATION, priority 2018, dated 2023)",
  "format_in_all_cases": "in vivo, rabbit",
  "key": {"[1]": {"system": "six-month old female rabbits", "experiment": "Bone mineral densities of tibiae of rabbits (Working Example 2)", "details": "4 weeks; for Bone mineral densities in proximal part (1/5 site) of the tibiae: 140 μg/kg per week; for Bone mineral densities in the proximal part (1/5 site) of the tibiae: weekly dosage 140 μg/kg", "procedure": "(§1) To evaluate the influences of the administration frequencies of teriparatide on the bone metabolism and the bone tissue morphology, six-month old female rabbits were subcutaneously administered with an agent in a manner that a weekly dosage of teriparatide was adjusted to 140 μg/kg at a frequency of once a week, twice a week or seven times a week over 4 weeks, or with a control drug without containing teriparatide at a frequency of seven times a week over 4 weeks (Table 2-54). Also, the bone mineral density and the bone strength of the tibiae were measured. The teriparatide solution which was administered was appropriately prepared by dissolving teriparatide acetate in a water for injection, filtering the solution, filling the filtrate in a vial, freeze-drying to give a preparation, and dissolving the preparation in a physiological saline upon use.\nThe bone mineral densities of the tibiae were analyzed in divided regions."}, "[2]": {"system": "six-month old female rabbits", "experiment": "Bone strength of tibiae of rabbits, three-point bending strength", "details": "for Maximum load, bone strength of tibiae: 140 μg/kg per week, subcutaneous, 4 weeks; for Maximum load, three-point bending strength of the tibiae: versus control group", "procedure": "as §1\nThree-point bending strength of the tibiae collected after the end of the administration period was measured."}, "[3]": {"system": "six-month old female rabbits", "experiment": "Bone tissue morphology of diaphysis of tibiae of rabbits", "procedure": "as §1"}, "[4]": {"details": "group administered twice a week"}, "[5]": {"details": "group administered seven times a week"}},
  "data": [
    {"smiles": "CC[C@H](C)[C@H](NC(=O)[C@H](CCC(=O)O)NC(=O)[C@H](CO)NC(=O)[C@@H](NC(=O)[C@@H](N)CO)C(C)C)C(=O)N[C@@H](CCC(N)=O)C(=O)N[C@@H](CC(C)C)C(=O)N[C@@H](CCSC)C(=O)N[C@@H](Cc1cnc[nH]1)C(=O)N[C@@H](CC(N)=O)C(=O)N[C@@H](CC(C)C)C(=O)NCC(=O)N[C@@H](CCCCN)C(=O)N[C@@H](Cc1cnc[nH]1)C(=O)N[C@@H](CC(C)C)C(=O)N[C@@H](CC(N)=O)C(=O)N[C@@H](CO)C(=O)N[C@@H](CCSC)C(=O)N[C@@H](CCC(=O)O)C(=O)N[C@@H](CCCN=C(N)N)C(=O)N[C@H](C(=O)N[C@@H](CCC(=O)O)C(=O)N[C@@H](Cc1c[nH]c2ccccc12)C(=O)N[C@@H](CC(C)C)C(=O)N[C@@H](CCCN=C(N)N)C(=O)N[C@@H](CCCCN)C(=O)N[C@@H](CCCCN)C(=O)N[C@@H](CC(C)C)C(=O)N[C@@H](CCC(N)=O)C(=O)N[C@@H](CC(=O)O)C(=O)N[C@H](C(=O)N[C@@H](Cc1cnc[nH]1)C(=O)N[C@@H](CC(N)=O)C(=O)N[C@@H](Cc1ccccc1)C(=O)O)C(C)C)C(C)C", "note": "[teriparatide]", "values": [
      {"measurement": "Bone mineral densities in proximal part (1/5 site) of the tibiae", "setting": "[1]; Group administered once a week, subcutaneous", "result": "272.5 ± 13.6", "unit": "mg/cm^2"},
      {"measurement": "Bone mineral densities in proximal part (1/5 site) of the tibiae", "setting": "[1]; Group administered twice a week, subcutaneous", "result": "278.8 ±9.8", "unit": "mg/cm^2"},
      {"measurement": "Bone mineral densities in the proximal part (1/5 site) of the tibiae", "setting": "[1]; [4]", "result": "higher value than that of the group administered once a week"},
      {"measurement": "Bone mineral densities in the proximal part (1/5 site) of the tibiae", "setting": "[1]; subcutaneous, as compared to control group", "result": "remarkably increased"},
      {"measurement": "Maximum load, bone strength of tibiae", "setting": "[2]; Group administered once a week", "result": 583.81, "unit": "N"},
      {"measurement": "Maximum load, bone strength of tibiae", "setting": "[2]; Group administered seven times a week", "result": 656.09, "unit": "N"},
      {"measurement": "Maximum load, bone strength of tibiae", "setting": "[2]; Group administered twice a week", "result": 624.41, "unit": "N"},
      {"measurement": "Maximum load, three-point bending strength of the tibiae", "setting": "[2]; [5]", "result": "higher values"},
      {"measurement": "Maximum load, three-point bending strength of the tibiae", "setting": "[2]; [4]", "result": "higher values"},
      {"measurement": "Bone tissue morphology of diaphysis of tibiae", "setting": "[3]; group administered once a week", "result": "none of these findings were observed"},
      {"measurement": "Bone tissue morphology of diaphysis of tibiae", "setting": "[3]; [5]", "result": "formation of trabecular bones on the endocortical surfaces, a large number of intracortical voids (increase of cortical porosity), and disorderedness in a lamellar structure were observed"},
      {"measurement": "Bone tissue morphology of diaphysis of tibiae", "setting": "[3]; [4]", "result": "none of these findings were observed"}
    ]}
  ]
}
